Measured values taken from US20220119379A1, “IMMUNOMODULATOR” (HITGEN INC., priority 2019, published 2022).
Like-named read-outs stand apart in the source and are kept apart here.

Legend:
Sting protein [1] = biological target: Sting protein (Homo sapiens, UniProt Q86WV6); assay: Binding affinity test of the compound and Sting protein by protein thermal transfer test (TSA); conditions: Kd fitted from change of ΔTm with compound concentration
Experimental: The protein thermal transfer test (TSA) was used to determine the binding affinity of the compound to Sting protein. The 100 ug/ml Sting protein was mixed with different concentrations of the compound and 5× SYPRO Orange dye in a buffer of 20 mM Hepes, 150 mM NaCl, 1 mM MgCl2, 1 mM DTT, pH=7.5. The protein dissolution curve was measured on a qPCR instrument, the Tm value was fitted with Protein Thermal Shift Software 1.3 software, and the Tm difference of the protein was calculated when different concentrations of compound and no compound were added. The dissociation constant Kd was fitted and obtained according to the change of ΔTm with the concentration of the compound. […] The Kd value of each compound is classified according to the following instructions: […]

Sting protein [2] = biological target: T1, Sting protein (Homo sapiens, UniProt Q86WV6, G230A/H232R/R293Q/R71H); assay: Agonistic function test on Sting protein: IFN-β and CXCL10 (IP10) cytokines produced by THP1 cells (ELISA); assay type: cell-based; conditions: for EC50: 18 hours, ELISA of supernatant; for activity of stimulating IFN-β and CXCL10 (IP10) cytokines produced by THP1 cells (in words): listed compounds compared with the reference compound
T1 construct: endogenous in cells; host or cells: THP1 cells (Shanghai Cell Bank)
T1 sequence (Q86WV6 whole entry R71H/G230A/H232R/R293Q): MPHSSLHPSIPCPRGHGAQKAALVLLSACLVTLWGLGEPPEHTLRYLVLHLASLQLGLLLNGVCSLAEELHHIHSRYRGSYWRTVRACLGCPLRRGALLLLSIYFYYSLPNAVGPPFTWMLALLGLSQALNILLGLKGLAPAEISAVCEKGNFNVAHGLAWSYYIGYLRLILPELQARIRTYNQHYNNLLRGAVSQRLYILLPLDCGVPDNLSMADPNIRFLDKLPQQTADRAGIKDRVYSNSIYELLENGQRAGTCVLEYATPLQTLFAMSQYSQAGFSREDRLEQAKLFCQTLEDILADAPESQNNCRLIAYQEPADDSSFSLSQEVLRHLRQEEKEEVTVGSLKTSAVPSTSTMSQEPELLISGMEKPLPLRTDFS
Experimental: In this experiment, the function of sting agonist was evaluated by detecting the changes of IFN-β and CXCL10 (IP10) cytokines produced by human peripheral blood mononuclear cell line THP1 cells (Shanghai Cell Bank) stimulated by the compounds. On the first day of the experiment, the ELISA plate was coated according to the IFN-β (R&D, #DY814-05) and IP10 (BD, #550926) ELISA test kit instructions. The compound was dissolved into DMSO stock solution and diluted with culture medium to a 2× working concentration, added to a 96-well plate, 100 μL per well. The THP1 cells in the logarithmic growth phase were taken to count, and were diluted to a concentration of 2*10^6/mL, added to the above-mentioned 96-well plate containing the compounds, with […], per well, mixed well, and incubated in a 37° C., 5% CO2 incubator for 18 hours. On the second day, the above cell culture supernatant was taken, 100 μL per well, and tested according to IFN-β and IP10 ELISA test kits respectively. The OD450 value was read, and converted into IFN-β and IP10 concentration according to the standard curve, and fitted with GraphPad 5.0 to calculate the EC50 value of the dose-efficiency curve.

Chain of Sting protein (Homo sapiens, UniProt Q86WV6) (Q86WV6 whole entry H232R, species assumed): as the sequence (Q86WV6 whole entry R71H/G230A/H232R/R293Q) above, with H71R, A230G, Q293R counted along it

| SMILES | Kd (Sting protein [1]) [nM] | EC50 (Sting protein [2]; read-out: IFN-β EC50) [nM] | EC50 (Sting protein [2]; read-out: IP10 EC50) [nM] | activity of stimulating IFN-β and CXCL10 (IP10) cytokines produced by THP1 cells (in words) (Sting protein [2]) |
| --- | --- | --- | --- | --- |
| CCc1nc(C)sc1C(=O)Nc1nc2cc(C(N)=O)cc(OCCCN3CCN(CC)CC3)c2n1C/C=C/Cn1c(NC(=O)c2cc(C)nn2CC)nc2cc(C(N)=O)cc(OC)c21 [Example 8] | 1000 to 10000 | 100 to 1000 | 10 to 100 |  |
| CCc1nc(C)sc1C(=O)Nc1nc2cc(C(N)=O)cc(OCCCN3CCN(C(C)C)CC3)c2n1C/C=C/Cn1c(NC(=O)c2cc(C)nn2CC)nc2cc(C(N)=O)cc(SC)c21 [Example 18] | 1000 to 10000 | 100 to 1000 | 10 to 100 |  |
| CCc1nc(C)sc1C(=O)Nc1nc2cc(C(N)=O)cc(OCCCN3CCN(C(C)=O)CC3)c2n1C/C=C/Cn1c(NC(=O)c2cc(C)nn2CC)nc2cc(C(N)=O)cc(SC)c21 [Example 35] | 1000 to 10000 | 10 to 100 | 10 to 100 | comparable or even higher activity |
| CCn1nc(C)cc1C(=O)Nc1nc2cc(C(N)=O)cc(OCCCN3CCOCC3)c2n1C/C=C/Cn1c(NC(=O)c2cc(C)nn2CC)nc2cc(C(N)=O)cc(SC)c21 [Example 54, (E)-1-(4-(5-carbamoyl-2-(1-ethyl-3-methyl-1H-pyrazole-5-formylamino)-7-(3-morpholinopropoxy)-1H-benzo[d]imidazol-1-yl)but-2-en-1-yl)-2-(1-ethyl-3-methyl-1H-pyrazole-5-carboxamino)-7-(methylthio)-1H-benzo[d]imidazole-5-formylamide] | 1000 to 10000 |  |  |  |
| CCc1nc(C)sc1C(=O)Nc1nc2cc(C(N)=O)cc(OC)c2n1C/C=C/Cn1c(NC(=O)c2cc(C)nn2CC)nc2cc(C(N)=O)cc(OCCCN3CCN(C)CC3)c21 [Example 12] | 1000 to 10000 |  | 100 to 1000 |  |
| CCc1nc(C)sc1C(=O)Nc1nc2cc(C(N)=O)cc(SC)c2n1C/C=C/Cn1c(NC(=O)c2c(F)c(C)nn2CC)nc2cc(C(N)=O)cc(OCCCN3CCOCC3)c21 [Example 52] | 1000 to 10000 | 10 to 100 | < 10 | comparable or even higher activity |
| CCc1nc(C)sc1C(=O)Nc1nc2cc(C(N)=O)cc(OCCCN3CCOCC3)c2n1C/C=C/Cn1c(NC(=O)c2c(F)c(C)nn2CC)nc2cc(C(N)=O)cc(SC)c21 [Example 49] | 1000 to 10000 | 10 to 100 | < 10 | comparable or even higher activity |
| CCc1nc(C)sc1C(=O)Nc1nc2cc(C(N)=O)cc(OCCCN3CCOCC3)c2n1C/C=C/Cn1c(NC(=O)c2cc(C)nn2CC)nc2cc(C(N)=O)cc(OC)c21 [Example 1] | 1000 to 10000 | 100 to 1000 | 10 to 100 |  |
| CCc1nc(C)sc1C(=O)Nc1nc2cc(C(N)=O)cc(OCCCN3CCOCC3)c2n1C/C=C/Cn1c(NC(=O)c2c(F)c(C)nn2CC)nc2cc(C(N)=O)cc(OC)c21 [Example 47] | 1000 to 10000 | > 1000 | 10 to 100 |  |
| CCn1nc(C)c(F)c1C(=O)Nc1nc2cc(C(N)=O)cc(OCCCN3CCOCC3)c2n1C/C=C/Cn1c(NC(=O)c2c(F)c(C)nn2CC)nc2cc(C(N)=O)cc(SC)c21 [Example 53, (E)-1-(4-(5-carbamoyl-2-(1-ethyl-4-fluoro-3-methyl-1H-pyrazole-5-carboxamino)-7-(3-morpholinopropoxy)-1H-benzo[d]imidazol-1-yl)but-2-en-1-yl)-2-(1-ethyl-4-fluoro-3-methyl-1H-pyrazole-5-formylamino)-7-(methylthio)-1H-benzo[d]imidazole-5-carboxamide] | 1000 to 10000 | 10 to 100 | < 10 | comparable or even higher activity |
| CCc1nc(C)sc1C(=O)Nc1nc2cc(C(N)=O)cc(SC)c2n1C/C=C/Cn1c(NC(=O)c2cc(C)nn2CC)nc2cc(C(N)=O)cc(OCCCN3CCN(C(C)C)CC3)c21 [Example 22] | 1000 to 10000 | 100 to 1000 | 10 to 100 |  |
| CCC(=O)N1CCN(CCCOc2cc(C(N)=O)cc3nc(NC(=O)c4cc(C)nn4CC)n(C/C=C/Cn4c(NC(=O)c5sc(C)nc5CC)nc5cc(C(N)=O)cc(OC)c54)c23)CC1 [Example 30] | 1000 to 10000 | 100 to 1000 | 10 to 100 |  |
| CCc1nc(C)sc1C(=O)Nc1nc2cc(C(N)=O)cc(SC)c2n1C/C=C/Cn1c(NC(=O)c2cc(C)nn2CC)nc2cc(C(N)=O)cc(OCCCN3CCN(C4CC4)CC3)c21 [Example 23] | 1000 to 10000 | 10 to 100 | 10 to 100 | comparable or even higher activity |
| CCc1nc(C)sc1C(=O)Nc1nc2cc(C(N)=O)cc(OCCCN3CCN(C4CC4)CC3)c2n1C/C=C/Cn1c(NC(=O)c2cc(C)nn2CC)nc2cc(C(N)=O)cc(OC)c21 [Example 10] | 1000 to 10000 | 100 to 1000 | 10 to 100 |  |
| CCc1nc(C)sc1C(=O)Nc1nc2cc(C(N)=O)cc(OC)c2n1C/C=C/Cn1c(NC(=O)c2sc(C)nc2CC)nc2cc(C(N)=O)cc(OCCCN3CCOCC3)c21 [Example 3] | 1000 to 10000 | 100 to 1000 | 10 to 100 |  |
| CCc1nc(C)sc1C(=O)Nc1nc2cc(C(N)=O)cc(SC)c2n1C/C=C/Cn1c(NC(=O)c2cc(C)nn2CC)nc2cc(C(N)=O)cc(OCCCN3CCN(C(C)=O)CC3)c21 [Example 41] | 1000 to 10000 | 100 to 1000 | 10 to 100 |  |
| CCc1nc(C)sc1C(=O)Nc1nc2cc(C(N)=O)cc(OC)c2n1C/C=C/Cn1c(NC(=O)c2cc(C)nn2CC)nc2cc(C(N)=O)cc(OCCCN3CCN(CC)CC3)c21 [Example 13] | 1000 to 10000 | 100 to 1000 | 10 to 100 |  |
| CCc1nc(C)sc1C(=O)Nc1nc2cc(C(N)=O)cc(OCCCN3CCN(C)CC3)c2n1C/C=C/Cn1c(NC(=O)c2cc(C)nn2CC)nc2cc(C(N)=O)cc(SC)c21 [Example 16] | 1000 to 10000 |  | 100 to 1000 |  |
| CCc1nc(C)sc1C(=O)Nc1nc2cc(C(N)=O)cc(OCCCN3CCN(C(=O)OC)CC3)c2n1C/C=C/Cn1c(NC(=O)c2cc(C)nn2CC)nc2cc(C(N)=O)cc(SC)c21 [Example 40] | 1000 to 10000 | 10 to 100 |  | comparable or even higher activity |
| CCc1nc(C)sc1C(=O)Nc1nc2cc(C(N)=O)cc(OCCCN3CCN(C(C)C)CC3)c2n1C/C=C/Cn1c(NC(=O)c2cc(C)nn2CC)nc2cc(C(N)=O)cc(OC)c21 [Example 9] | 1000 to 10000 | 100 to 1000 | 10 to 100 |  |
| CCc1nc(C)sc1C(=O)Nc1nc2cc(C(N)=O)cc(OCCCN3CCN(C(C)=O)CC3)c2n1C/C=C/Cn1c(NC(=O)c2cc(C)nn2CC)nc2cc(C(N)=O)cc(OC)c21 [Example 11] | 1000 to 10000 | 100 to 1000 | 10 to 100 |  |
| CCc1nc(C)sc1C(=O)Nc1nc2cc(C(N)=O)cc(OC)c2n1C/C=C/Cn1c(NC(=O)c2cc(C)nn2CC)nc2cc(C(N)=O)cc(SCCCN3CCOCC3)c21 [Example 6] | 1000 to 10000 | 100 to 1000 | 100 to 1000 |  |
| CCc1nc(C)sc1C(=O)Nc1nc2cc(C(N)=O)cc(OCCCN3CCN(C4CC4)CC3)c2n1C/C=C/Cn1c(NC(=O)c2cc(C)nn2CC)nc2cc(C(N)=O)cc(SC)c21 [Example 19] | 1000 to 10000 | < 10 | < 10 | comparable or even higher activity |
| CCc1nc(C)sc1C(=O)Nc1nc2cc(C(N)=O)cc(OC)c2n1C/C=C/Cn1c(NC(=O)c2c(F)c(C)nn2CC)nc2cc(C(N)=O)cc(OCCCN3CCOCC3)c21 [Example 48] | 1000 to 10000 | 100 to 1000 | 10 to 100 |  |
